The values that follow come from ChEMBL document CHEMBL5370537, “Aporphines: A privileged scaffold in CNS drug discovery” (Eur J Med Chem, 2023).

What is called Ki is a dissociation constant, usually derived from enzyme kinetics or from competition with a known ligand. What is called EC50 is the midpoint of the concentration-response curve. Broadly, the Emax is the greatest response seen or fitted, relative to the assay's reference. The term IC50 denotes the concentration that inhibits the measured activity by half.

In test [1] the target is 5-hydroxytryptamine receptor 7 (Rattus norvegicus, UniProt P32305). Description: Displacement of [3H]5-HT from rat 5-HT7 assessed as inhibition constant. A general note: Displacement assays read how much labelled ligand stays bound in the presence of the test substance.
Sequence of 5-hydroxytryptamine receptor 7 (P32305 whole entry): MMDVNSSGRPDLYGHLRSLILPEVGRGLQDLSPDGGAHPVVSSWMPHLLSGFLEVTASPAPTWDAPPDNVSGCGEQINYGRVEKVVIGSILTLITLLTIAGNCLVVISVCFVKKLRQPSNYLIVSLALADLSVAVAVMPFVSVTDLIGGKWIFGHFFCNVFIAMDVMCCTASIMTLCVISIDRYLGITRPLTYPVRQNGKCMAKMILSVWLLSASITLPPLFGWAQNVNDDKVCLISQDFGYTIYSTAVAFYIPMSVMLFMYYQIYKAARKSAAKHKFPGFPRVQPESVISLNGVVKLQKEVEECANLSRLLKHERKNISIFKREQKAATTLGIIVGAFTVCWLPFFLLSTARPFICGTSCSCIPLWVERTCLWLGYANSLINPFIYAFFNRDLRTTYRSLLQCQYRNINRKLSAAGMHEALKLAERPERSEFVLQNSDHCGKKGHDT
In test [2] the target is T1, 5-hydroxytryptamine receptor 1A (Homo sapiens, UniProt P08908).
T1 sequence (P08908 whole entry): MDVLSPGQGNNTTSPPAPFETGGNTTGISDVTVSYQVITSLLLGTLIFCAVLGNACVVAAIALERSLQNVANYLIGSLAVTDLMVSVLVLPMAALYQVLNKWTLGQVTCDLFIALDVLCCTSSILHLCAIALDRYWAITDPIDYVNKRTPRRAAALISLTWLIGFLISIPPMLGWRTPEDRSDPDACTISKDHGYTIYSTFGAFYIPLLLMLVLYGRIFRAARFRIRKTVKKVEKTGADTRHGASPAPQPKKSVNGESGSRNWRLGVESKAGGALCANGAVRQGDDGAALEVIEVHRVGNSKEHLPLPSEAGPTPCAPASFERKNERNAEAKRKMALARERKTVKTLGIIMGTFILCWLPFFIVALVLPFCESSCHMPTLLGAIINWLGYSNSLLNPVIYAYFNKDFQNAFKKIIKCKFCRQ
Description: Displacement of [3H]8-OH-DPAT from human 5-HT1A assessed as inhibition constant.

Test [3] deals with T2, 5-hydroxytryptamine receptor 2C (Homo sapiens, UniProt P28335).
T2 sequence (P28335 whole entry): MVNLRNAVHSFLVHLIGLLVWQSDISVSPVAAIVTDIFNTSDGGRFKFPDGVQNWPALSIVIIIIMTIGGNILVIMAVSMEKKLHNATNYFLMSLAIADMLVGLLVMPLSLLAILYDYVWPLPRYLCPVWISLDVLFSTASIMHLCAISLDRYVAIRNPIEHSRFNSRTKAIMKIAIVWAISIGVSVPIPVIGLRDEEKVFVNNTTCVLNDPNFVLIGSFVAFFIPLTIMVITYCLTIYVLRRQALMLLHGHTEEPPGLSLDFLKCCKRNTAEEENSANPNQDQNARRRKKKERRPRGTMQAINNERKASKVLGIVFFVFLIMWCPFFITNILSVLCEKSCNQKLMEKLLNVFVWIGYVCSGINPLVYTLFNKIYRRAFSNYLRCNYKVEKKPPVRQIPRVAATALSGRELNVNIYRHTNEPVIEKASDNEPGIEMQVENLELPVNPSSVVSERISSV
Description: Agonist activity at 5-HT2C (unknown origin). The test is classed as functional.

The target of test [4] is T3, 5-hydroxytryptamine receptor 2C (Homo sapiens) (UniProt P28335).
T3 sequence (whole entry): T2 sequence (P28335 whole entry)
Description: Agonist activity at 5-HT2C (unknown origin) relative to control. Format: functional. Particulars: filed as agonist.

Test [5] concerns the target T4, 5-hydroxytryptamine receptor 2B (Homo sapiens, UniProt P41595). Description: Agonist activity at 5-HT2B (unknown origin). Format: functional.
Test [6] addresses T5, 5-hydroxytryptamine receptor 2A (Homo sapiens, UniProt P28223). Description: Agonist activity at 5-HT2A (unknown origin). The test is classed as functional.
The target of test [7] is T4, 5-hydroxytryptamine receptor 2B. Description: Agonist activity at 5-HT2B (unknown origin) relative to control. Format: functional. Particulars: filed as agonist.
Test [8] addresses T5, 5-hydroxytryptamine receptor 2A. Description: Agonist activity at 5-HT2A (unknown origin) relative to control. Format: functional. The note with it: filed as agonist.
Test [9] can be described thus: Selectivity index, ratio of EC50 for agonist activity at 5-HT2C (unknown origin) to EC50 for agonist activity at 5-HT2B (unknown origin).
The nature of test [10]: Selectivity index, ratio of EC50 for agonist activity at 5-HT2C (unknown origin) to EC50 for agonist activity at 5-HT2A (unknown origin).
A short description of test [11]: Inhibition of neuronal excitability in mouse Primary neocortical neuron assessed as reduction in SCO amplitude measured after 45 mins by FLIPR assay. The note with it: 0.75 h. The test is classed as functional, cell-based.
The nature of test [12]: Inhibition of neuronal excitability in mouse Primary neocortical neuron assessed as reduction in SCO frequency measured after 45 mins by FLIPR assay. The test is classed as functional, cell-based. Particulars: 0.75 h.
Test [13] has as its target T2, 5-hydroxytryptamine receptor 2C. Description: Agonist activity at recombinant human 5-HT2C stably expressed in human T-REx-293 cells measured after 60 mins by FLIPR assay. Format: functional, cell-based.
For test [14], the target named is T3, 5-hydroxytryptamine receptor 2C (Homo sapiens). Description: Agonist activity at recombinant human 5-HT2C stably expressed in human T-REx-293 cells measured after 60 mins by FLIPR assay relative to control. Format: functional, cell-based. Particulars: filed as agonist.

T4 sequence (P41595 whole entry): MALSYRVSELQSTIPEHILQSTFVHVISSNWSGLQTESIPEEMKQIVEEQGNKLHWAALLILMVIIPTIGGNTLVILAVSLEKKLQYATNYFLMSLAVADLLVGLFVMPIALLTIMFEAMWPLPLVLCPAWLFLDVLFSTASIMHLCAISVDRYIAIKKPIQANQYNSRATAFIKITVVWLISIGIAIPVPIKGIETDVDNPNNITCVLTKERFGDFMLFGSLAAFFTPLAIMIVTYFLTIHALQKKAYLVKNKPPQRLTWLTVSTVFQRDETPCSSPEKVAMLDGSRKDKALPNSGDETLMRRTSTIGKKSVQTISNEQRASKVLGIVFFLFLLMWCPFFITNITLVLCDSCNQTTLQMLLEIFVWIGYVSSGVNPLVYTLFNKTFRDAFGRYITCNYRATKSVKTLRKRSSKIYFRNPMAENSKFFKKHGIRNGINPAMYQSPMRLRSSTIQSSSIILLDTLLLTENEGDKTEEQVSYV
T5 sequence (P28223 whole entry): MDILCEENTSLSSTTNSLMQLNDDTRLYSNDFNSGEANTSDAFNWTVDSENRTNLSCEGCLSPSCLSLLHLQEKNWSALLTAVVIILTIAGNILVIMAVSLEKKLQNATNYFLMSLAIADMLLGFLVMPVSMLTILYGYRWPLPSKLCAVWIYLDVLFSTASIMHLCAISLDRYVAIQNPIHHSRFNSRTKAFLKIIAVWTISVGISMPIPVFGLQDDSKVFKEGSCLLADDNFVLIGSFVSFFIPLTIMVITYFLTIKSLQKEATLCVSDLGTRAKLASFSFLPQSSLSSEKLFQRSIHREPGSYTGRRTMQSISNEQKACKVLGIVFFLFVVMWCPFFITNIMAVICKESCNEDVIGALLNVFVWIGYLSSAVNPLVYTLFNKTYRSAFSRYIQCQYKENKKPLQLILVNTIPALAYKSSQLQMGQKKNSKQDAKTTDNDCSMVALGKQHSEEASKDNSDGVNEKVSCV

As for `CN1CCc2ccc3c4c2[C@H]1Cc1cccc(c1-4)[C@]3(C)O`, the results for the inhibition constant Ki in test [1] and in [2] were 6.9 nM and 61.5 nM, respectively.
For `Oc1cc2c3c(c1Cl)-c1ccccc1CC3NCC2` (centres undefined), the EC50 was 23.6 nM in test [3], 278 nM in test [5] and 596 nM in test [6]. The maximum response (Emax) in test [4] worked out at 102%; in test [7] it was 63.5%; in test [8] it was 44.9%. The results for the Ratio EC50 in test [9] and in test [10] were 12 and 25, respectively.
`COc1ccc2c(c1O)-c1c3c(cc4c1[C@H](C2)N(C)CC4)OCO3` [(S)-BULBOCAPNINE]: the values for the IC50 in test [11] and in [12] were 12900 nM and 11600 nM, respectively.
In the case of `COc1ccc2c3c1-c1ccccc1CC3NCC2` (centres undefined), the EC50 in test [13] came to 103 nM. Also, the Emax in test [14] turned out to be 96%.
